Data on 16 compounds can be found in patent publication US10087191B2, “Piperidine derivative and preparation method and pharmaceutical use thereof” (Jiangsu Hengrui Medicine Co., Ltd., priority 2015, dated 2018).

Series [1] can be described thus: Pharmacokinetics assay in BALB/C nude mice after intragastrical administration. In kind it is in vivo. The following applies: female, mouse, plasma, po, 3 mg/kg; for AUC: read-out: Area Under Curve AUC; for CL/F: read-out: Clearance CL/F (converted); for half-life: read-out: Half-Life t½ (converted); for MRT: read-out: Mean Residence Time MRT; for Cmax: read-out: Plasma Conc. Cmax. The protocol: BALB/C nude mice were used as test animals. The drug concentration in plasma at different time points was determined by LC/MS/MS after intragastrical administration of the compounds of Examples 10, 14, 20, 21, 57, 68, 71, 73, 74, 76 and 89 to BALB/C nude mice. The pharmacokinetic behavior of the compounds of the present invention was studied and evaluated in BALB/C nude mice.
Ninety-nine (99) female BALB/C nude mice were equally divided into 11 groups, which were purchased from SINO-BRITSH SIPPR/BK LAB. ANIMAL LTD., CO, with Certificate No.: SCXK (Shanghai) 2008-0016.
The appropriate amount of each test compound was weighed, and successively added with 9% PEG400+0.5% tween 80+0.5% PVP+90% aqueous solution of 0.5% CMC.
After an overnight fast, 99 female BALB/C nude mice were equally divided into 11 groups, and administered the test compounds intragastrically at an administration volume of 0.2 mL/10 g.
Blood (0.1 mL) was sampled (3 mice at each time point) at 0.5, 1.0, 2.0, 4.0, 6.0, 8.0, 11.0 and 24.0 hours after administration. The samples were stored in heparinized test tubes, and centrifuged for 10 minutes at 3,500 rpm to separate the blood plasma. The plasma samples were stored at −20° C. The plasma concentration of the test compounds in BALB/C nude mice after intragastrical administration was determined by LC/MS/MS.
Pharmacokinetic parameters of the compounds of Examples 10, 14, 20, 21, 57, 68, 71, 73, 74, 76 and 89 of the present invention are shown below.

The test system of another series is MCF7 cells. The series is described as follows: Inhibition of the proliferation of MCF7 cells (Cell Titer-Glo). The following applies: Homo sapiens, MCF-7 cells, 72 hours, read-out: IC50 value of inhibition effect on the proliferation of MCF7 cells. In kind it is cell-based. How it is done:
The object of this experiment was to determine the inhibition effect of the compounds on the proliferation activity of MCF7 cells, and the in vitro activity of the compounds was evaluated according to the IC50 value.
After incubation for 24 hours, the medium was removed, then 90 μl of the medium containing 2% FBS and 10 μl of the drug were added to each well, 10 μl of DMSO were added to the control group, and the blank group contained only 100 μl medium containing 2% FBS. The plate was gently shaken and incubated in a incubator at 37° C., 5% CO2. After 72 hours, 50 μl of mixed Cell Titer-Glo (Promega, Cat. No. G7571) were added to each well. The plate was shaken until the ingredients were well mixed, and placed at room temperature for 10 minutes, then the chemiluminescence signal value was determined.
The values of the chemiluminescence signals vs the logarithmic concentrations of the compounds were plotted using Graghpad Prism to obtain IC50 values.
(In general: Cellular ATP, detected with luciferase, serves as a proxy for viable cell number.)

For a further series, the target named is estrogen receptor (ER) (Homo sapiens (Human), UniProt P03372). Put plainly: Inhibition of the binding of estrogen (E) to estrogen receptor (ER), MCF-7/ERE-luciferase reporter cells. It is filed as cell-based. The following applies: MCF-7/ERE-luciferase cells, 0.1 nM estradiol, 24 hours; read-out: IC50 value of inhibition effect on the binding of E to ER. The protocol:
The inhibition effect of the compounds on the binding of E to ER in vitro was tested by the following method.
The object of this experiment was to determine the inhibition effect of the compounds on the binding of E to ER, and the in vitro activity of the compounds was evaluated according to the IC50 value.
MCF-7/ERE-luciferase cells were inoculated into the MEM medium (hyclone, SH30024.01B) containing 10% charcoal stripped FBS (Moregate, FBSF), 1% sodium pyruvate (Sigma, Cat. No. S8636), 1% nonessential amino acids (Sigma, Cat. No. M7145) and 500 μg/ml G418 in a 96-well plate with a density of 30,000 cells/well, and the cells were incubated under the conditions of 37° C. and 5% CO2. […] After incubation for 24 hours, the medium was removed, then 0.1 nM estradiol (Sigma, Cat. No. E2758) and 10 μl of the drug diluted with the medium were added to each well, and the control group was added with DMSO. The plate was gently shaken and incubated in a incubator at 37° C., 5% CO2. After 24 hours, the cell culture medium was discarded.
The inhibition effect of the compounds of the present invention on the binding of E to ER was tested by the experiment described above.

Sequence of estrogen receptor (ER) (P03372 whole entry): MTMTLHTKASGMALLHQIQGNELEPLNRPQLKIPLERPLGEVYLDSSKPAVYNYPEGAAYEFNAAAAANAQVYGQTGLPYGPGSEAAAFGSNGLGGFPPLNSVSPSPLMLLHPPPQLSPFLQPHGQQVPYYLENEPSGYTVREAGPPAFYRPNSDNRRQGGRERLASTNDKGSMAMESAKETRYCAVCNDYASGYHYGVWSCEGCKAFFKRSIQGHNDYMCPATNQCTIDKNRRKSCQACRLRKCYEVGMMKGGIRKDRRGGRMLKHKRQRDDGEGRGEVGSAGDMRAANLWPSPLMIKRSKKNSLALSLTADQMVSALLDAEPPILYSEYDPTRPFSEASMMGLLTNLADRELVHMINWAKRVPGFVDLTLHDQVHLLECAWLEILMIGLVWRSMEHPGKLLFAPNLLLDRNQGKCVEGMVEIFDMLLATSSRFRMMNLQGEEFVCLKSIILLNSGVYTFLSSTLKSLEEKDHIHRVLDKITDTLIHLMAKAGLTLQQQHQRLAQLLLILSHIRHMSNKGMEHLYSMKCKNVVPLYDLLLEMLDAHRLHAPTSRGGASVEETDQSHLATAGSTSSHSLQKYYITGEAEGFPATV

Regarding `Cc1ncc(-c2ccc3c(c2)CC(C)N(CC(C)(C)F)C3c2c(F)cc(/C=C/C(=O)O)cc2F)s1` [Example 10, (E)-3-(3,5-difluoro-4-((1S,3R/1R,3S)-2-(2-fluoro-2-methylpropyl)-3-methyl-6-(2-methylthiazol-5-yl)-1,2,3,4-tetrahydroisoquinolin-1-yl)phenyl)acrylic acid], in series [1], the AUC is 15400 ng·h/mL, the CL/F is 54 mL/min/kg, the half-life was 4.11 h and the mean residence time (MRT) was 5.72 h. Also, in series [1], the Cmax came to 2600 ng/mL. The IC50 with MCF7 cells is 0.49 nM.

In the case of `CCn1cc(-c2ccc3c(c2)CC(C)N(CC(C)(C)F)C3c2c(F)cc(/C=C/C(=O)O)cc2F)cn1` [Example 20, (E)-3-(4-((1S,3R/1R,3S)-6-(1-ethyl-1H-pyrazol-4-yl)-2-(2-fluoro-2-methylpropyl)-3-methyl-1,2,3,4-tetrahydroisoquinolin-1-yl)-3,5-difluorophenyl)acrylic acid], in series [1], the AUC turned out to be 13000 ng·h/mL, the CL/F was 63.8 mL/min/kg, the half-life is 3.27 h and the mean residence time MRT was 4.07 h. In series [1], the Cmax was 3290 ng/mL. Moreover, the IC50 in the series on MCF7 cells was found to be 0.03 nM.

In the case of `CCn1cc(-c2ccc3c(c2)C[C@@H](C)N(CC(C)(C)F)[C@@H]3c2c(F)cc(/C=C/C(=O)O)cc2F)cn1` [Example 21, (E)-3-(4-((1S,3R)-6-(1-ethyl-1H-pyrazol-4-yl)-2-(2-fluoro-2-methylpropyl)-3-methyl-1,2,3,4-tetrahydroisoquinolin-1-yl)-3,5-difluorophenyl)acrylic acid], in series [1], the AUC is 10100 ng·h/mL, the CL/F was 82.7 mL/min/kg, the half-life was 2.52 h and the mean residence time MRT stood at 2.71 h. Besides, in series [1], the Cmax is 4300 ng/mL. In addition, the IC50 in the series on MCF7 cells amounted to 0.11 nM.

For the compound `CC1Cc2cc(NC(=O)OC(C)(C)C)ccc2C(c2c(F)cc(/C=C/C(=O)O)cc2F)N1CC(C)(C)F` [Example 31, (E)-3-(4-((1S,3R/1R,3S)-6-((tert-butoxycarbonyl)amino)-2-(2-fluoro-2-methylpropyl)-3-methyl-1,2,3,4-tetrahydroisoquinolin-1-yl)-3,5-difluorophenyl)acrylic acid], the IC50 at estrogen receptor (ER) stood at 84.1 nM.

As to `CC1Cc2cc(OCC#N)ccc2C(c2c(F)cc(/C=C/C(=O)O)cc2F)N1CC(C)(C)F` [Example 33, (E)-3-(4-((1S,3R/1R,3S)-6-(cyanomethoxy)-2-(2-fluoro-2-methylpropyl)-3-methyl-1,2,3,4-tetrahydroisoquinolin-1-yl)-3,5-difluorophenyl)acrylic acid], the IC50 with MCF7 cells worked out at 7.78 nM; on estrogen receptor (ER) it was 37.7 nM.

On to `CC1Cc2cc(C3CC3)ccc2C(c2c(F)cc(/C=C/C(=O)O)cc2F)N1CC(C)(C)F` [Example 34, (E)-3-(4-((1S,3R/1R,3S)-6-cyclopropyl-2-(2-fluoro-2-methylpropyl)-3-methyl-1,2,3,4-tetrahydroisoquinolin-1-yl)-3,5-difluorophenyl)acrylic acid], for which the IC50 at estrogen receptor (ER) is 18.4 nM.

For the compound `CC1Cc2cc(OC3CCOCC3)ccc2C(c2c(F)cc(/C=C/C(=O)O)cc2F)N1CC(C)(C)F` [Example 36, (E)-3-(3,5-difluoro-4-((1S,3R/1R,3S)-2-(2-fluoro-2-methylpropyl)-3-methyl-6-((tetrahydro-2H-pyran-4-yl)oxy)-1,2,3,4-tetrahydroisoquinolin-1-yl)phenyl)acrylic acid], on estrogen receptor (ER), the IC50 came to 24.9 nM.

With `CC1Cc2cc(O[C@H]3CCOC3)ccc2C(c2c(F)cc(/C=C/C(=O)O)cc2F)N1CC(C)(C)F` (stereo partly drawn) [Example 37, (E)-3-(3,5-difluoro-4-((1S,3R/1R,3S)-2-(2-fluoro-2-methylpropyl)-3-methyl-6-(((S)-tetrahydrofuran-3-yl)oxy)-1,2,3,4-tetrahydroisoquinolin-1-yl)phenyl)acrylic acid], the IC50 in the series on MCF7 cells was determined as 4.79 nM; on estrogen receptor (ER), 13.7 nM.

`CC1CN(c2ccc3c(c2)CC(C)N(CC(C)(C)F)C3c2c(F)cc(/C=C/C(=O)O)cc2F)CCO1` [Example 38, (E)-3-(3,5-difluoro-4-((1S,3R/1R,3S)-2-(2-fluoro-2-methylpropyl)-3-methyl-6-(2-methylmorpholino)-1,2,3,4-tetrahydroisoquinolin-1-yl)phenyl)acrylic acid]: the values for the IC50 in the series with MCF7 cells and at estrogen receptor (ER) were 1.34 nM and 4.42 nM, respectively.

For the compound `CC1Cc2cc(N3CCN(C)C(=O)C3)ccc2C(c2c(F)cc(/C=C/C(=O)O)cc2F)N1CC(C)(C)F` [Example 39, (E)-3-(3,5-difluoro-4-((1S,3R/1R,3S)-2-(2-fluoro-2-methylpropyl)-3-methyl-6-(4-methyl-3-oxopiperazin-1-yl)-1,2,3,4-tetrahydroisoquinolin-1-yl)phenyl)acrylic acid], the IC50 with MCF7 cells is 2.34 nM; at estrogen receptor (ER), 14.2 nM.

For `CC(C)Cn1cc(-c2ccc3c(c2)CC(C)N(CC(C)(C)F)C3c2c(F)cc(/C=C/C(=O)O)cc2F)cn1` [Example 52, (E)-3-(3,5-difluoro-4-((1S,3R/1R,3S)-2-(2-fluoro-2-methylpropyl)-6-(1-isobutyl-1H-pyrazol-4-yl)-3-methyl-1,2,3,4-tetrahydroisoquinolin-1-yl)phenyl)acrylic acid], the IC50 at estrogen receptor (ER) came out at 26 nM.

Take `C[C@H]1Cc2cc3c(cc2[C@H](c2c(F)cc(/C=C/C(=O)O)cc2F)N1CC(C)(C)F)OCO3` [Example 72, (E)-3-(3,5-difluoro-4-((5R,7S)-6-(2-fluoro-2-methylpropyl)-7-methyl-5,6,7,8-tetrahydro-[1,3]dioxolo[4,5-g]isoquinolin-5-yl)phenyl)acrylic acid]: the IC50 on estrogen receptor (ER) was 40.9 nM.

Take `CC1Cc2cc(C#N)ccc2C(c2c(F)cc(/C=C/C(=O)O)cc2F)N1CC(C)(C)F` [Example 93, (E)-3-(4-((1S,3R/1R,3S)-6-cyano-2-(2-fluoro-2-methylpropyl)-3-methyl-1,2,3,4-tetrahydroisoquinolin-1-yl)-3,5-difluorophenyl)acrylic acid]: the IC50 on estrogen receptor (ER) was 12.9 nM.

Turning to `C[C@H]1Cc2c(ccc3[nH]ncc23)[C@H](c2c(F)cc(/C=C/C(=O)O)cc2F)N1CC(C)(C)F` [Example 95, (E)-3-(3,5-difluoro-4-((6R,8S)-7-(2-fluoro-2-methylpropyl)-8-methyl-6,7,8,9-tetrahydro-3H-pyrazolo[4,3-f]isoquinolin-6-yl)phenyl)acrylic acid], the IC50 at estrogen receptor (ER) is 29.8 nM.

As to `CCn1cc(-c2ccc3oc4c(c3c2)C[C@H](C)N(CC(C)(C)F)[C@H]4c2c(F)cc(/C=C/C(=O)O)cc2F)cn1` [Example 96, (E)-3-(4-((1S,3S)-6-(1-ethyl-1H-pyrazol-4-yl)-2-(2-fluoro-2-methylpropyl)-3-methyl-1,2,3,4-tetrahydrobenzofuro[2,3-c]pyridin-1-yl)-3,5-difluorophenyl)acrylic acid], the IC50 at estrogen receptor (ER) turned out to be 31.2 nM.

Turning to `C[C@H]1Cc2cc(-c3ccc4cnccc4c3)ccc2[C@H](c2c(F)cc(/C=C/C(=O)O)cc2F)N1CC(C)(C)F` [Example 99, (E)-3-(3,5-difluoro-4-((1R,3S)-2-(2-fluoro-2-methylpropyl)-3-methyl-1,2,3,4-tetrahydro-[6,6′-biisoquinolin]-1-yl)phenyl)acrylic acid], on estrogen receptor (ER), the IC50 amounted to 77.5 nM.

A word on the AUC: it is the area under the concentration-time curve, a measure of exposure. The half-life is the time in which the quantity being followed falls by half. By MRT is commonly meant a mean duration of stay, worked out from the concentration-time curve. In general, Cmax refers to the highest concentration seen after dosing.
